The target of this experiment is cyclooxygenase cascade. Nature of the experiment: Inhibition of PGE2 synthesis (assay of cyclooxygenase products, 14C arachidonate incorporation) in homogenate of inflamed human gingival tissue. The class given is biochemical.

Experimental: A large pool of inflamed human gingival tissue was obtained from patients with periodontitis who were undergoing routine periodontal surgery. The tissues were immediately stored in liquid nitrogen prior to use or were used fresh. The assay of cyclooxygenase products was performed as a modification of the assay of El Attar et al., J. Periodon. […] Pooled tissue was weighed and homogenized at 0°-4° C. with a Polytron® (Brinkman) homogenizer in a 0.2 M TRIS buffer, pH 8.0, at a final concentration of 20 mg/ml. After centrifugation for 10 minutes at 1200×g, the supernatant was divided into 3 ml aliquots for incubation in the presence or absence of a test compound.
Prostanoids were extracted as described by Powell, Methods in Eng., 86, 467 (1982) using a Sep-Pak-C18 cartridge from Waters Associates. The Sep-Pak was prepared by the sequential elution of 20 milliliters of ethanol and 20 milliliters of water. The sample was then adjusted to 15% ethanol, pH 3.0, with acetic acid and applied to the column. […]
These are readily separated and quantified using a 4.6×100 nm RP-18 Spheri-5u column from Brownle Labs. A Flow-One radioactivity monitor simultaneously measured radioactivity while monitoring elution at 192 nanometers.
The net incorporation of the 14C arachidonate was measured in the absence of the test substance in order to determine the maximum activity of the cyclooxygenase cascade.

For `Cc1c(C)c2c(c(C)c1O)CCC(C)(CCCC(C)CCCC(C)CCCC(C)C)O2` (stereo not drawn) [alpha-tocopherol], under “change in presence of ketoprofen”, the “IC50 value of alpha-tocopherol (inhibition of PGE2 synthesis)” value is on record as “lowered”.
On to `CC(C(=O)O)c1cccc(C(=O)c2ccccc2)c1` (centres unmarked) [ketoprofen], for which the “IC50 value of ketoprofen (inhibition of PGE2 synthesis)” value (change in presence of alpha-tocopherol) is “lowered”.

These data come from patent publication US5032384A, “Compositions and method for the treatment of disease” (Block Drug Company, Inc., priority 1989, dated 1991).
